Key:
STING [1] = molecular target: T1, STING (Homo sapiens, UniProt Q86WV6, G230A/H232R/R293Q/R71H); assay: qPCR analysis of mRNA levels of cytokine gene expression (IFNB, ISG15, CXCL10) in THP-1 cells; format: cell-based; settings: 10 μM compound, 6 h, vs DMSO
T1 construct: Human monocyte cell THP-1 were purchased from ATCC (Catalog No. TIB-202); host or cells: THP-1 human monocyte cells
Experimental: (§1) qPCR analysis of mRNA levels of cytokine gene expression in THP-1 cell Human monocyte cell THP-1 were purchased from ATCC (Catalog No. TIB-202). The complete growth medium was made with ATCC-formulated RPMI-1640 Medium (Catalog No. 30-2001) and supplemented with 2-mercaptoethanol to a final concentration of 0.05 mM, and fetal bovine serum (FBS) to a final concentration of 10%.
To evaluate the agonistic effects of chemicals on STING, the gene expression of IFNB, ISG15 and CXCL10 in human monocyte THP-1 cells was measured by real time qPCR. After the treatment of 10 μM Compounds for 6 hrs, cells were respectively lysed by TRIzol reagents (from Invitrogen). Total RNA was extracted according to the manufacturer's instruction. mRNA concentration was measured via 3rd generation NanoDrop machine. 1 μg of mRNA was used for the reverse transcription reaction with random primer, dNTP mix, RNase inhibitor and M-MuLV Reverse Transcriptase. SYBR green supermix and hot start DNA polymerase were used in qPCR with TBP gene as an internal control. Gene-specific primers were purchase from Integrated DNA Technologies.

STING [2] = molecular target: T1, STING; assay: Western blot analysis of activated STING and its downstream protein phosphorylation in THP-1 cells; format: cell-based; settings: 10 μM compound, 3 h, vs DMSO
Experimental: The Western blot analysis of activated STING and its downstream protein phosphorylation in human monocyte THP-1 cells
as §1, with “Human” for “qPCR analysis of mRNA levels of cytokine gene expression in THP-1 cell Human”
After the THP-1 cells were treated with the 10 μM invented compounds for 3 hours, the cells were lysed by RIPA buffer, followed by washing with PBS. The total protein concentration was measured by BCA protein assay. The 10 μg protein sample was loaded after mixing with SDS-PAGE protein loading buffer, separated on SDS-PAGE and transferred to a PVDF membrane using the semi-dry transfer apparatus. After blocking with 5% BSA for 1 hr, the membrane was incubated with 1st antibodies overnight at 4° C., followed by incubation with HRP-conjugated 2nd antibodies (Catalog No. WBULS0100 from Millipore) for another 1 hr at room temperature. Lastly, the immunocomplexes were detected via the Bio-Rad ChemiDoc Touch Imaging System. Antibodies for western blotting were purchased from Cell Signaling Technology, catalog numbers 19781 (p-STING Ser366), 13647 (STING), 5483 (p-TBK1 Ser 172), 3504 (TBK1), 4947 (p-IRF3 Ser396), 4302 (IRF3) and 7074 (HRP-linked anti-rabbit IgG).

[3] = system: CT-26 mouse colon adenocarcinoma; assay: Antitumor efficacy in s.c. CT-26 mouse colon adenocarcinoma model; format: in vivo, BALB/c mice
Experimental: Evaluation of Antitumor Efficacy in CT-26 Mouse Model
Six- to eight-week-old male BALB/c mice of 18-20 g were purchased from Taconic Biosciences (La Jolla, CA). Mouse colon carcinoma CT-26 (from ATCC) cells were maintained in RPMI-1640 medium supplemented with 10% fetal bovine serum (FBS), 100 U/ml penicillin and 100 μg/ml streptomycin, and incubated at 37° C. and 5% CO2. The cells growing in an exponential growth phase were harvested and counted for tumor inoculation. Each mouse was inoculated subcutaneously at the left and the right flank with 5×10^4 CT-26 tumor cells in 0.1 ml of serum-free medium for tumor development.
Mice were randomized into study groups with 8 mice/group when average tumor volume was ˜70 mm^3. […] Tumor size and body weight were measured twice per week throughout the study. Tumor volume was calculated by applying length and width caliper measurements to the following formula: TV=0.5*L*W^2. Percent treated/control (T/C) value was calculated as 100×ΔT/ΔC (when ΔT>0) or 100×ΔT/Tsd (when ΔT<0) where ΔT and ΔC are the changes in the mean tumor volumes between the indicated day and the first day of measurement for the treatment and control groups, respectively. […] Statistical analyses of the differences in tumor volume among the groups were evaluated using a one-way ANOVA. […]

[4] = Tolerability and body weight in CT-26 mouse model; format: in vivo; settings: 3×1.5 mg/kg IP, BALB/c mice bearing CT-26
Experimental: Mice were randomized into study groups with 8 mice/group when average tumor volume was ˜70 mm^3. On day 1, 4 and 8 mice were dosed with vehicle or 1.5 mg/kg Cpd 4 (Example 4) in 5% DMSO, 45% PEG400, and […] formulation by intraperitoneal injection. Tumor size and body weight were measured twice per week throughout the study. Tumor volume was calculated by applying length and width caliper measurements to the following formula: TV=0.5*L*W^2. Percent treated/control (T/C) value was calculated as 100×ΔT/ΔC (when ΔT>0) or 100×ΔT/Tsd (when ΔT<0) where ΔT and ΔC are the changes in the mean tumor volumes between the indicated day and the first day of measurement for the treatment and control groups, respectively. Tsd is the first day mean tumor volume of the treated group. Statistical analyses of the differences in tumor volume among the groups were evaluated using a one-way ANOVA. All data were analyzed using GraphPad Prism 8 (GraphPad Software, San Diego, CA). p<0.05 was considered to be statistically significant.

T1 sequence (Q86WV6 whole entry R71H/G230A/H232R/R293Q): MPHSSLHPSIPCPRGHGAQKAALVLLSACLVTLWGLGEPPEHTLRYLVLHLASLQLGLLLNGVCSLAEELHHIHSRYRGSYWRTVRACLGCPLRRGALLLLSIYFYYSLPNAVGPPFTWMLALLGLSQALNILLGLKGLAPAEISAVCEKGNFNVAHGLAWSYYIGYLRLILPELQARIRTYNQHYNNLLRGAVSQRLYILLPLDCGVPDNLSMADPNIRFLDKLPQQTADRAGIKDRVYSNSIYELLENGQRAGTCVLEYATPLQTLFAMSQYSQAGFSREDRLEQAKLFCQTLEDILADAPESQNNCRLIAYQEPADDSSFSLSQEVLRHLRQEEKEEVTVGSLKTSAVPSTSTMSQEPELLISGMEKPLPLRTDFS

Structure (SMILES)	mRNA level of CXCL10 (STING [1])	mRNA level of IFNB (STING [1])	mRNA level of ISG15 (STING [1])	p-IRF3 level (STING [2])	p-TBK1 level (STING [2])	phosphorylated STING (p-STING) level (STING [2])	tumor growth rate of treated/control (T/C) ([3]; 3×1.5 mg/kg IP (day 1, 4, 8), day 12, s.c. CT-26 in BALB/c mice) [%]	antitumor efficacy (tumor volume) ([3]; 3×1.5 mg/kg IP, s.c. CT-26 in BALB/c mice)	body weight [4]	tolerability [4]
CCn1nc(C)cc1C(=O)/N=c1\n(C)c2cc(C(N)=O)cnc2n1C/C=C/Cn1/c(=N/C(=O)c2cc(C)nn2CC)n(C)c2cc(C(N)=O)cc(OCCCN3CCOCC3)c21 [Example 6, (E)-3-((E)-4-((E)-5-carbamoyl-2-((1-ethyl-3-methyl-1H-pyrazole-5-carbonyl)imino)-3-methyl-7-(3-morpholinopropoxy)-2,3-dihydro-1H-benzo[d]imidazol-1-yl)but-2-en-1-yl)-2-((1-ethyl-3-methyl-1H-pyrazole-5-carbonyl)imino)-1-methyl-2,3-dihydro-1H-imidazo[4,5-b]pyridine-6-carboxamide]	significantly upregulated	significantly upregulated	significantly upregulated	–	–	–	–	–	–	–
CCn1nc(C)cc1C(=O)Nc1nc2cc(C(N)=O)cnc2n1C/C=C/Cn1c(NC(=O)c2cc(C)nn2CC)nc2cc(C(N)=O)cc(OCCN3CCOCC3)c21 [Example 10, (E)-3-(4-(5-carbamoyl-2-(1-ethyl-3-methyl-1H-pyrazole-5-carboxamido)-7-(2-morpholinoethoxy)-1H-benzo[d]imidazol-1-yl)but-2-en-1-yl)-2-(1-ethyl-3-methyl-1H-pyrazole-5-carboxamido)-3H-imidazo[4,5-b]pyridine-6-carboxamide]	significantly upregulated	significantly upregulated	significantly upregulated	higher levels	higher levels	higher levels	–	–	–	–
CCn1nc(C)cc1C(=O)Nc1nc2cc(C(N)=O)cnc2n1C/C=C/Cn1c(NC(=O)c2cc(C)nn2CC)nc2cc(C(N)=O)cc(OCCCN3CCOCC3)c21 [Example 4, (E)-3-(4-(5-carbamoyl-2-(1-ethyl-3-methyl-1H-pyrazole-5-carboxamido)-7-(3-morpholinopropoxy)-1H-benzo[d]imidazol-1-yl)but-2-en-1-yl)-2-(l-ethyl-3-methyl-1H-pyrazole-5-carboxamido)-3H-imidazo[4,5-b]pyridine-6-carboxamide]	significantly upregulated	significantly upregulated	significantly upregulated	higher levels	higher levels	higher levels	19	highly potent	no bodyweight loss	well-tolerated
CCn1nc(C)cc1C(=O)Nc1nc2cc(C(N)=O)cnc2n1C/C=C/Cn1c(NC(=O)c2cc(C)nn2CC)nc2cc(C(N)=O)cc(OCCCN3CCNCC3)c21 [Example 8, (E)-3-(4-(5-carbamoyl-2-(1-ethyl-3-methyl-1H-pyrazole-5-carboxamido)-7-(3-(piperazin-1-yl)propoxy)-1H-benzo[d]imidazol-1-yl)but-2-en-1-yl)-2-(1-ethyl-3-methyl-1H-pyrazole-5-carboxamido)-3H-imidazo[4,5-b]pyridine-6-carboxamide]	significantly upregulated	significantly upregulated	significantly upregulated	higher levels	higher levels	higher levels	–	–	–	–

From patent US20240132493A1, “IMIDAZOPYRIDINE DERIVATIVES AS STING AGONISTS” (Fulgent Genetics, Inc., priority 2021, published 2024)
